Test results published in US11214594B2, “Antimicrobial peptide having synergistic antibacterial effect with antibiotics on multidrug resistant bacteria, and use thereof” (priority 2016, dated 2022).
≈ marks a conversion by molar mass, not a printed value. Where a SMILES comes first, the peptide text is derived from it. [ ]: non-standard residue; d: D form.

How the values were obtained:
A. baumannii = assay: MIC of antibiotic during combined treatment with antimicrobial peptide; type: cell-based, Acinetobacter baumannii; details: for Antibiotic MIC, Erythromycin / Antibiotic MIC, Linezolid / Antibiotic MIC, Vancomycin: A. baumannii
Outline: (§1)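 Antibiotic diluted in MH medium, dispensed per well with peptide; setup repeated with roles reversed; MIC read per combination.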

S. aureus = assay: microbe, parasite or virus in culture; type: cell-based, Staphylococcus aureus
Outline: (§2)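 MIC read-out = lowest peptide level with no bacterial proliferation. Strains diluted in MH medium to 2×10^6 CFU; peptide twofold serial dilutions in MH added 1:1 in microtiter wells.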

B. subtilis = assay: microbe, parasite or virus in culture; type: cell-based, Bacillus subtilis
Outline: as §2

P. aeruginosa = assay: microbe, parasite or virus in culture; type: cell-based, Pseudomonas aeruginosa
Outline: as §2

MRSA 3114 = type: cell-based, Staphylococcus aureus; details: 3114
Outline: as §2

MRSA 3126 = type: cell-based, Staphylococcus aureus; details: 3126
Outline: as §2

MDREC 1238 = type: cell-based, Escherichia coli
Outline: as §2

E. coli [1] = assay: MIC of antibiotic during combined treatment with antimicrobial peptide; type: cell-based, Escherichia coli; details: for Antibiotic MIC, Erythromycin / Antibiotic MIC, Linezolid / Antibiotic MIC, Vancomycin: E. coli
Outline: as §1

MDREC 1229 [2] = assay: as above; type: cell-based, Escherichia coli
Outline: (§3)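 Antibiotic MIC came from antibiotic dilutions added to bacteria (2×10^6 CFU/ml, MH medium) already combined with peptide serially diluted 2:1 from its own MIC. Swapping the roles of the two agents gave the peptide MIC.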

S. epidermidis = assay: microbe, parasite or virus in culture; type: cell-based, Staphylococcus epidermidis
Outline: as §2

MDRAB 12035 = assay: MIC of antibiotic during combined treatment with antimicrobial peptide; type: cell-based, Acinetobacter baumannii
Outline: as §3

MDRST 8007 = assay: Minimal inhibitory concentration (MIC), single agent; type: cell-based, Salmonella typhimurium; details: agent alone
Outline: as §2

E. coli [3] = assay: microbe, parasite or virus in culture; type: cell-based, Escherichia coli; details: 16 h
Outline: as §2

MDREC 1229 [4] = assay: microbe, parasite or virus in culture; type: cell-based, Escherichia coli
Outline: as §2

MDRPA 2003 = type: cell-based, Pseudomonas aeruginosa
Outline: as §2

MDRPA 2002 = type: cell-based, Pseudomonas aeruginosa
Outline: as §2

[5] = combined with peptide at 1 μg/ml
[6] = combined with peptide at 2 μg/ml
[7] = combined with peptide at 4 μg/ml
[8] = combined with peptide at 6 μg/ml
[9] = combined with peptide at 8 μg/ml
[10] = combined with peptide at 16 μg/ml
[11] = combined with peptide at 32 μg/ml
[12] = combined with peptide at 64 μg/ml
[13] = peptide treatment concentration 1 μg/ml
[14] = peptide treatment concentration 2 μg/ml
[15] = peptide treatment concentration 4 μg/ml
[16] = peptide treatment concentration 6 μg/ml
[17] = peptide treatment concentration 8 μg/ml
[18] = peptide treatment concentration 16 μg/ml
[19] = peptide treatment concentration 32 μg/ml
[20] = peptide treatment concentration 64 μg/ml

CC[C@H](C)[C@H](NC(=O)[C@H](CCCCN)NC(=O)[C@H](Cc1c[nH]c2ccccc12)NC(=O)[C@@H](N)CCCNC(=N)N)C(=O)N[C@@H](Cc1ccccc1)C(=O)N[C@@H](CCCCN)C(=O)N[C@@H](CCCCN)C(=O)N[C@H](C(=O)N[C@H](CCCCN)C(=O)N[C@@H](CCCCN)C(=O)N[C@@H](CC(C)C)C(=O)N[C@@H](CC(C)C)C(=O)N[C@@H](Cc1c[nH]cn1)C(=O)N[C@@H](CCC(=O)O)C(=O)N[C@@H](C)C(=O)N[C@@H](CCCCN)C(=O)N[C@@H](CCCCN)C(=O)N[C@@H](Cc1c[nH]c2ccccc12)C(N)=O)[C@@H](C)CC [PapMA-20, RWK IFK KIk KLL HEA KKW-NH2] (H-RWKIFKKI[dK]KLLHEAKKW-NH2; N-terminus assumed)
Synergistic effect of antibacterial activity with existing antibiotics compared with PapMA-1 (A. baumannii; A. baumannii and MDRAB 12035): higher level than the PapMA-1 peptide
Antibiotic MIC, Erythromycin (A. baumannii; [5]): 32 µg/mL
Antibiotic MIC, Linezolid (A. baumannii; [5]): >128 µg/mL
Antibiotic MIC, Vancomycin (A. baumannii; [5]): >128 µg/mL
Antibiotic MIC, Erythromycin (A. baumannii; [6]): 16 µg/mL
Antibiotic MIC, Linezolid (A. baumannii; [6]): 64 µg/mL
Antibiotic MIC, Vancomycin (A. baumannii; [6]): >128 µg/mL
Antibiotic MIC, Erythromycin (A. baumannii; [7]): 2 µg/mL
Antibiotic MIC, Linezolid (A. baumannii; [7]): 16 µg/mL
Antibiotic MIC, Vancomycin (A. baumannii; [7]): 32 µg/mL
Antibiotic MIC, Erythromycin (A. baumannii; [8]): 1 µg/mL
Antibiotic MIC, Linezolid (A. baumannii; [8]): 8 µg/mL
Antibiotic MIC, Vancomycin (A. baumannii; [8]): 8 µg/mL
Antibiotic MIC, Erythromycin (A. baumannii; [9]): 0.125 µg/mL
Antibiotic MIC, Linezolid (A. baumannii; [9]): 2 µg/mL
Antibiotic MIC, Vancomycin (A. baumannii; [9]): 2 µg/mL
Antibiotic MIC, Erythromycin (A. baumannii; [10]): 0 µg/mL
Antibiotic MIC, Linezolid (A. baumannii; [10]): 0 µg/mL
Antibiotic MIC, Vancomycin (A. baumannii; [10]): 0 µg/mL
Antibiotic MIC, Erythromycin (A. baumannii; [11]): 0 µg/mL
Antibiotic MIC, Linezolid (A. baumannii; [11]): 0 µg/mL
Antibiotic MIC, Vancomycin (A. baumannii; [11]): 0 µg/mL
Antibiotic MIC, Erythromycin (A. baumannii; [12]): 0 µg/mL
Antibiotic MIC, Linezolid (A. baumannii; [12]): 0 µg/mL
Antibiotic MIC, Vancomycin (A. baumannii; [12]): 0 µg/mL
Minimal inhibitory concentration MIC (S. aureus): >128 µg/mL
Minimal inhibitory concentration MIC (B. subtilis): >128 µg/mL
Minimal inhibitory concentration MIC (P. aeruginosa): 64 µg/mL (≈ 26.9 µM)
Minimal inhibitory concentration MIC (MRSA 3114): >128 µg/mL
Minimal inhibitory concentration MIC (MRSA 3126): >128 µg/mL
Minimal inhibitory concentration MIC (MDREC 1238): 32 µg/mL (≈ 13.4 µM)
Synergistic effect of antibacterial activity with existing antibiotics compared with PapMA-1 (E. coli [1]; E. coli and MDREC1229): higher level than the PapMA-1 peptide
Antibiotic MIC, Erythromycin (E. coli [1]; erythromycin combined with peptide at 1 μg/ml): 64 µg/mL
Antibiotic MIC, Erythromycin (E. coli [1]; erythromycin combined with peptide at 2 μg/ml): 32 µg/mL
Antibiotic MIC, Erythromycin (E. coli [1]; erythromycin combined with peptide at 4 μg/ml): 8 µg/mL
Antibiotic MIC, Erythromycin (E. coli [1]; erythromycin combined with peptide at 6 μg/ml): 1 µg/mL
Antibiotic MIC, Erythromycin (E. coli [1]; erythromycin combined with peptide at 8 μg/ml): 0.5 µg/mL
Antibiotic MIC, Erythromycin (E. coli [1]; erythromycin combined with peptide at 16 μg/ml): 0 µg/mL
Antibiotic MIC, Erythromycin (E. coli [1]; erythromycin combined with peptide at 32 μg/ml): 0 µg/mL
Antibiotic MIC, Erythromycin (E. coli [1]; erythromycin combined with peptide at 64 μg/ml): 0 µg/mL
Antibiotic MIC, Linezolid (E. coli [1]; linezolid combined with peptide at 1 μg/ml): >128 µg/mL
Antibiotic MIC, Linezolid (E. coli [1]; linezolid combined with peptide at 2 μg/ml): 64 µg/mL
Antibiotic MIC, Linezolid (E. coli [1]; linezolid combined with peptide at 4 μg/ml): 16 µg/mL
Antibiotic MIC, Linezolid (E. coli [1]; linezolid combined with peptide at 6 μg/ml): 8 µg/mL
Antibiotic MIC, Linezolid (E. coli [1]; linezolid combined with peptide at 8 μg/ml): 4 µg/mL
Antibiotic MIC, Linezolid (E. coli [1]; linezolid combined with peptide at 16 μg/ml): 0 µg/mL
Antibiotic MIC, Linezolid (E. coli [1]; linezolid combined with peptide at 32 μg/ml): 0 µg/mL
Antibiotic MIC, Linezolid (E. coli [1]; linezolid combined with peptide at 64 μg/ml): 0 µg/mL
Antibiotic MIC, Vancomycin (E. coli [1]; vancomycin combined with peptide at 1 μg/ml): >128 µg/mL
Antibiotic MIC, Vancomycin (E. coli [1]; vancomycin combined with peptide at 2 μg/ml): >128 µg/mL
Antibiotic MIC, Vancomycin (E. coli [1]; vancomycin combined with peptide at 4 μg/ml): 64 µg/mL
Antibiotic MIC, Vancomycin (E. coli [1]; vancomycin combined with peptide at 6 μg/ml): 16 µg/mL
Antibiotic MIC, Vancomycin (E. coli [1]; vancomycin combined with peptide at 8 μg/ml): 8 µg/mL
Antibiotic MIC, Vancomycin (E. coli [1]; vancomycin combined with peptide at 16 μg/ml): 0 µg/mL
Antibiotic MIC, Vancomycin (E. coli [1]; vancomycin combined with peptide at 32 μg/ml): 0 µg/mL
Antibiotic MIC, Vancomycin (E. coli [1]; vancomycin combined with peptide at 64 μg/ml): 0 µg/mL
Antibiotic MIC, Erythromycin (MDREC 1229 [2]; [13]): 128 µg/mL
Antibiotic MIC, Linezolid (MDREC 1229 [2]; [13]): >128 µg/mL
Antibiotic MIC, Vancomycin (MDREC 1229 [2]; [13]): >128 µg/mL
Antibiotic MIC, Erythromycin (MDREC 1229 [2]; [14]): 32 µg/mL
Antibiotic MIC, Linezolid (MDREC 1229 [2]; [14]): 64 µg/mL
Antibiotic MIC, Vancomycin (MDREC 1229 [2]; [14]): >128 µg/mL
Antibiotic MIC, Erythromycin (MDREC 1229 [2]; [15]): 8 µg/mL
Antibiotic MIC, Linezolid (MDREC 1229 [2]; [15]): 16 µg/mL
Antibiotic MIC, Vancomycin (MDREC 1229 [2]; [15]): 64 µg/mL
Antibiotic MIC, Erythromycin (MDREC 1229 [2]; [16]): 2 µg/mL
Antibiotic MIC, Linezolid (MDREC 1229 [2]; [16]): 16 µg/mL
Antibiotic MIC, Vancomycin (MDREC 1229 [2]; [16]): 16 µg/mL
Antibiotic MIC, Erythromycin (MDREC 1229 [2]; [17]): 1 µg/mL
Antibiotic MIC, Linezolid (MDREC 1229 [2]; [17]): 8 µg/mL
Antibiotic MIC, Vancomycin (MDREC 1229 [2]; [17]): 8 µg/mL
Antibiotic MIC, Erythromycin (MDREC 1229 [2]; [18]): 0 µg/mL
Antibiotic MIC, Linezolid (MDREC 1229 [2]; [18]): 0 µg/mL
Antibiotic MIC, Vancomycin (MDREC 1229 [2]; [18]): 0 µg/mL
Antibiotic MIC, Erythromycin (MDREC 1229 [2]; [19]): 0 µg/mL
Antibiotic MIC, Linezolid (MDREC 1229 [2]; [19]): 0 µg/mL
Antibiotic MIC, Vancomycin (MDREC 1229 [2]; [19]): 0 µg/mL
Antibiotic MIC, Erythromycin (MDREC 1229 [2]; [20]): 0 µg/mL
Antibiotic MIC, Linezolid (MDREC 1229 [2]; [20]): 0 µg/mL
Antibiotic MIC, Vancomycin (MDREC 1229 [2]; [20]): 0 µg/mL
Minimal inhibitory concentration MIC (S. epidermidis): >128 µg/mL
Erythromycin MIC during combined treatment with peptide (MDRAB 12035; [13]): 32 µg/mL
Linezolid MIC during combined treatment with peptide (MDRAB 12035; [13]): >128 µg/mL
Vancomycin MIC during combined treatment with peptide (MDRAB 12035; [13]): >128 µg/mL
Erythromycin MIC during combined treatment with peptide (MDRAB 12035; [14]): 16 µg/mL
Linezolid MIC during combined treatment with peptide (MDRAB 12035; [14]): 128 µg/mL
Vancomycin MIC during combined treatment with peptide (MDRAB 12035; [14]): >128 µg/mL
Erythromycin MIC during combined treatment with peptide (MDRAB 12035; [15]): 8 µg/mL
Linezolid MIC during combined treatment with peptide (MDRAB 12035; [15]): 32 µg/mL
Vancomycin MIC during combined treatment with peptide (MDRAB 12035; [15]): 64 µg/mL
Erythromycin MIC during combined treatment with peptide (MDRAB 12035; [16]): 4 µg/mL
Linezolid MIC during combined treatment with peptide (MDRAB 12035; [16]): 16 µg/mL
Vancomycin MIC during combined treatment with peptide (MDRAB 12035; [16]): 16 µg/mL
Erythromycin MIC during combined treatment with peptide (MDRAB 12035; [17]): 0.5 µg/mL
Linezolid MIC during combined treatment with peptide (MDRAB 12035; [17]): 4 µg/mL
Vancomycin MIC during combined treatment with peptide (MDRAB 12035; [17]): 4 µg/mL
Erythromycin MIC during combined treatment with peptide (MDRAB 12035; [18]): 0 µg/mL
Linezolid MIC during combined treatment with peptide (MDRAB 12035; [18]): 0 µg/mL
Vancomycin MIC during combined treatment with peptide (MDRAB 12035; [18]): 0 µg/mL
Erythromycin MIC during combined treatment with peptide (MDRAB 12035; [19]): 0 µg/mL
Linezolid MIC during combined treatment with peptide (MDRAB 12035; [19]): 0 µg/mL
Vancomycin MIC during combined treatment with peptide (MDRAB 12035; [19]): 0 µg/mL
Erythromycin MIC during combined treatment with peptide (MDRAB 12035; [20]): 0 µg/mL
Linezolid MIC during combined treatment with peptide (MDRAB 12035; [20]): 0 µg/mL
Vancomycin MIC during combined treatment with peptide (MDRAB 12035; [20]): 0 µg/mL
Minimal inhibitory concentration MIC (MDRST 8007): 64 µg/mL (≈ 26.9 µM)
Minimal inhibitory concentration MIC (E. coli [3]): 16 µg/mL (≈ 6.72 µM)
Minimal inhibitory concentration MIC (MDREC 1229 [4]): 16 µg/mL (≈ 6.72 µM)
Peptide MIC, peptide alone (MDREC 1229 [4]): 16 µg/mL
Minimal inhibitory concentration MIC (MDRPA 2003): 64 µg/mL (≈ 26.9 µM)
Minimal inhibitory concentration MIC (MDRPA 2002): 64 µg/mL (≈ 26.9 µM)
